Test results from PMC11794977, “Inhibitory Potential and Binding Thermodynamics of Scyllatoxin‐Based BH3 Domain Mimetics Targeting Repressor BCL2 Proteins” (Journal of Molecular Recognition, 2025).
Where a SMILES comes first, the peptide text is derived from it.

Tests used:
Bcl‐2‐ΔTM [1] = target: Bcl‐2‐ΔTM (UniProt P10415); assay: FP competitive binding assay; conditions: fluorescence polarization; 100 nM Bcl‐2‐ΔTM and 25 nM ^FluBax‐BH3^ΔB pre-incubated 1 h, competitor 100 μM to 2.3 pM, further 1 h, ambient temperature; binding buffer 50 mM Tris, 100 mM NaCl, pH 8.0; triplicate; read-out: IC50 (competition with ^FluBax‐BH3^ΔB for Bcl‐2‐ΔTM)
Procedure: FP competitive binding assays were performed in triplicate on black 384‐well plates (#3575, Corning, Corning, NY) using a SpectraMax M5e multi‐mode plate reader (Molecular Devices, Sunnyvale, CA). For these experiments, 100 nM Bcl‐2‐ΔTM and 25 nM ^FluBax‐BH3^ΔB were initially co‐incubated for 1 h in binding buffer at ambient temperature in the dark. Following pre‐incubation, serial dilutions of acetylated peptides (100 μM to 2.3 pM) were added, and the solutions were allowed to incubate for an additional 1 h at ambient temperature in the dark. This incubation time was deemed sufficient for binding reactions to reach equilibrium, as judged by an absence of change in the observed polarization value of the sample with the lowest protein concentration over 4 h (data not shown). Following incubation, the fluorescence polarization of each sample was measured using an excitation wavelength of 498 nm and an emission wavelength of 525 nm. An average of 100 reads were recorded for each well. […]

Bcl‐2‐ΔTM [2] = target: Bcl‐2‐ΔTM (UniProt P10415); assay: Isothermal titration calorimetry (ITC); format: binding; conditions: 25°C; for n (number of sites): 20 μM Bcl‐2‐ΔTM in cell, 200 μM peptide injected; for n (number of sites) / TΔS / ΔH: binding buffer pH 8.0, ± SD, SD; for ΔG: binding buffer pH 8.0, calculated as ΔH − TΔS
Procedure: All ITC experiments were performed in triplicate using a MicroCal 200 ITC instrument (Malvern Panalytical) at 25°C. To initiate ITC experiments, the sample cell was filled with 250 μL of binding buffer supplemented with 20 μM Bcl‐2‐ΔTM. Acetylated peptides were then diluted to a final concentration of 200 μM in binding buffer and injected into the sample cell at 2 μL volumes using a 6 s injection time and a 150 s delay between each injection. Data analysis was performed using MicroCal Origin software v7.0. Non‐linear curves were fit using Equation (3) adapted from the instrument manual: (3) ΔQ=nMtΔHVo/21+Xt/nMt+1/nKaMt−1+Xt/nMt+1/nKaMt^2−4Xt/nMt where, ΔQ is the heat content released or absorbed by each injection. ΔH is the enthalpy change of ligand binding and M t is bulk concentration of Bcl‐2‐ΔTM. V o is the cell volume of Bcl‐2‐ΔTM and K a is the affinity constant. X t is bulk concentration of peptide and n is the number of sites occupied by the peptide. Dissociation constants (K d) for all peptides were calculated by taking the reciprocal of the K a .
ΔG values were calculated from the Gibbs free energy Equation (4) using Origin‐fitted values of ΔH and program‐calculated values of ΔS. (4) ΔG=ΔΗ−ΤΔS

Bcl‐2‐ΔTM, sequence (P10415 whole entry, stated change not applied): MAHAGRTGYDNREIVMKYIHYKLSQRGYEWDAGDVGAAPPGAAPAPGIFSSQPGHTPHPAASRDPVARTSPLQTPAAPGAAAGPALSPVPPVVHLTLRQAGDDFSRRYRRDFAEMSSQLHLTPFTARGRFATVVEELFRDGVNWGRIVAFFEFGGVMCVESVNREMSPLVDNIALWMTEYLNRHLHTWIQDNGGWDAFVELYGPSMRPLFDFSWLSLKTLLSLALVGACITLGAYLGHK

SMILES | IC50 (Bcl‐2‐ΔTM [1]) | n (number of sites) (Bcl‐2‐ΔTM [2]; 3 trials) | ΔG (Bcl‐2‐ΔTM [2]; ± SD, 3 trials) | Kd (Bcl‐2‐ΔTM [2]; binding buffer pH 8.0, reciprocal of K a, ± SD, 3 trials) | TΔS (Bcl‐2‐ΔTM [2]; 3 trials) | ΔH (Bcl‐2‐ΔTM [2]; 3 trials) | difference in ΔG, complex more stable than that of ^AcScTx‐Bax^ΔΔΔ (Bcl‐2‐ΔTM [2]; versus ^AcScTx‐Bax^ΔΔΔ) | enthalpic contribution less favorable than with ^AcBax‐BH3^ΔB (Bcl‐2‐ΔTM [2]; versus ^AcBax‐BH3^ΔB) | difference in ΔG, binds more favorably than ^AcScTx‐Bax^ΔΔ,8–26 (Bcl‐2‐ΔTM [2]; versus ^AcScTx‐Bax^ΔΔ,8–26)
CC[C@H](NC(=O)[C@H](CCC(=O)O)NC(=O)[C@H](CO)NC(=O)[C@H](CC(C)C)NC(=O)[C@H](CCCCN)NC(=O)[C@H](CCCCN)NC(=O)[C@@H](NC(=O)[C@H](CO)NC(=O)CNC(C)=O)[C@@H](C)O)C(=O)N[C@@H](CC(C)C)C(=O)N[C@@H](CCCCN)C(=O)N[C@@H](CCCNC(=N)N)C(=O)N[C@H](C(=O)NCC(=O)N[C@@H](CC(=O)O)C(=O)N[C@@H](CCC(=O)O)C(=O)N[C@@H](CC(C)C)C(=O)N[C@@H](CC(=O)O)C(=O)N[C@@H](CO)C(=O)N[C@@H](CC(N)=O)C(=O)N[C@@H](CCSC)C(N)=O)[C@@H](C)CC [^AcBax‐BH3^ΔB, reference compound] (HELM PEPTIDE1{[ac].G.S.T.K.K.L.S.E.[Abu].L.K.R.I.G.D.E.L.D.S.N.M.[am]}$$$$V2.0) | 0.141 µM | 0.93 ± 0.05 | -41.92 ± 3.72 kJ/mol | 0.191 ± 0.0275 µM | 19.2 ± 0.837 kJ/mol | -22.7 ± 3.05 kJ/mol | 6.4 kJ/mol | – | –
CC[C@H](NC(=O)[C@H](CO)NC(=O)CNC(C)=O)C(=O)N[C@@H](CCCCN)C(=O)N[C@@H](CCCCN)C(=O)N[C@@H](CC(C)C)C(=O)N[C@@H](CO)C(=O)N[C@H]1CSSC[C@@H](C(=O)N[C@@H](CCC(=O)O)C(=O)N[C@@H](CC)C(=O)N[C@H](C(=O)N[C@@H](CCCCN)C(=O)N[C@@H](Cc2c[nH]cn2)C(N)=O)C(C)C)NC(=O)[C@H](CCCCN)NC(=O)[C@H](CC(=O)O)NC(=O)CNC(=O)[C@H]([C@@H](C)CC)NC(=O)[C@H](CC)NC(=O)[C@H](CCCCN)NC(=O)CNC(=O)[C@H](CC(C)C)NC(=O)[C@H](CC(C)C)NC(=O)CNC(=O)[C@H](CC(=O)O)NC(=O)CNC(=O)[C@H]([C@@H](C)CC)NC(=O)[C@H](CC)NC(=O)[C@H](CCCCN)NC(=O)[C@H](CC(C)C)NC(=O)[C@H](CC)NC1=O [^AcScTx‐Bax^ΔΔ,8–26] (HELM PEPTIDE1{[ac].G.S.[Abu].K.K.L.S.C.[Abu].L.K.[Abu].I.G.D.G.L.L.G.K.[Abu].I.G.D.K.C.E.[Abu].V.K.H.[am]}$PEPTIDE1,PEPTIDE1,9:R3-27:R3$$$V2.0) | – | 1.13 ± 0.08 | -31.4 ± 0.502 kJ/mol | – | 6.82 ± 0.13 kJ/mol | -24.6 ± 0.628 kJ/mol | – | – | –
CC[C@H](NC(=O)[C@H](CO)NC(=O)CNC(C)=O)C(=O)N[C@@H](CCCCN)C(=O)N[C@@H](CCCCN)C(=O)N[C@@H](CC(C)C)C(=O)N[C@@H](CO)C(=O)N[C@@H](CC)C(=O)N[C@@H](CC)C(=O)N[C@@H](CC(C)C)C(=O)N[C@@H](CCCCN)C(=O)N[C@@H](CC)C(=O)N[C@H](C(=O)NCC(=O)N[C@@H](CC(=O)O)C(=O)NCC(=O)N[C@@H](CC(C)C)C(=O)N[C@@H](CC(C)C)C(=O)NCC(=O)N[C@@H](CCCCN)C(=O)N[C@@H](CC)C(=O)N[C@H](C(=O)NCC(=O)N[C@@H](CC(=O)O)C(=O)N[C@@H](CCCCN)C(=O)N[C@@H](CC)C(=O)N[C@@H](CCC(=O)O)C(=O)N[C@@H](CC)C(=O)N[C@H](C(=O)N[C@@H](CCCCN)C(=O)N[C@@H](Cc1c[nH]cn1)C(N)=O)C(C)C)[C@@H](C)CC)[C@@H](C)CC [^AcScTx‐Bax^ΔΔΔ] (HELM PEPTIDE1{[ac].G.S.[Abu].K.K.L.S.[Abu].[Abu].L.K.[Abu].I.G.D.G.L.L.G.K.[Abu].I.G.D.K.[Abu].E.[Abu].V.K.H.[am]}$$$$V2.0) | – | 0.90 ± 0.09 | -35.5 ± 1.38 kJ/mol | – | 19.4 ± 0.46 kJ/mol | -16.1 ± 1.38 kJ/mol | – | 6.61 kJ/mol | ~4.2 kJ/mol
